Holding throughout (type): cell-based
Data set [1] deals with T1, CXCR4 (Homo sapiens (Human), UniProt P61073). As to the kind of experiment: Functional calcium mobilization assay (SDF-1α induced). The conditions noted are these: read-out: Ca Flux IC50. As for the experimental part:
Functional modulation of CXCR4 was determined by calcium mobilization assay using leukemic lymphoid CEM cells, which naturally express high levels of CXCR4. Generally, the assay is carried out as follows: Cells are grown in vitro to confluency. On the day of the assay, cells are removed from the incubator, culture medium removed and replaced with a calcium sensitive dye (Calcium3 assay kit; Molecular Devices, Sunnyvale, Calif.). The cells are allowed to dye load for 45-60 min at 37° C. in the cell culture incubator and then allowed to equilibrate to room temperature for no more than 15 min before assay.
Compound plates were generated containing up to 3% dimethyl sulfoxide in media kept at room temperature. Test compounds were added to the cells at a 1:3 dilution, and calcium mobilization was measured using a Flex Station fluorescence imager (Molecular Devices). This first read was used to determine direct agonist activation of the CXCR4 receptor by the test compounds. […] Full dose response curves were generated daily for SDF-1a to calculate IC50 concentrations. The IC50 values are reported. In cases, where one was not determined, a percent inhibition at the 1 μM concentration was extrapolated.
Functional calcium mobilization assay was conducted as described in Example 27.

The target of data set [2] is T1, CXCR4. Nature of the data set: Cellular impedance change induced by SDF-1a (cellular dielectric spectroscopy). The conditions noted are these: HeLa cells, endogenous CXCR4, EC50 concentration of SDF-1a, 30 minutes; read-out: Antagonist IC50. As to the method:
This assay measures the change in impedance that occurs when cells are stimulated with SDF-1a. Changes in shape and cytoskeleton result in a change of impedance that is dependent on the activation of the CXCR4 receptor. This assay is contracted to MDS Pharma Services and performed as described in http://discovery.mdsps.com/Catalog/Services/Screening/CellKey/AssayDetails.aspx?id=7 (Assay 930070). Briefly, human HeLa cells expressing endogenous CXCR4 are grown in vitro and receptor activation in live cells is measured using cellular dielectric spectroscopy (CDS).

Data set [3] addresses hERG potassium channel (Homo sapiens (Human), UniProt Q12809). Nature of the data set: hERG potassium channel current, automatic patch clamp. The conditions noted are these: human, mammalian cells expressing hERG potassium channel. As to the method:
The in vitro effects of the selected compounds on the hERG (human ether-á-go-go-related gene) potassium channel current (a surrogate for IKr, the rapidly activating, delayed rectifier cardiac potassium current) expressed in mammalian cells were evaluated at room temperature using the PatchXpress 7000A (Molecular Devices), an automatic parallel patch clamp system.
A general note: hERG is a cardiac potassium channel; its block is linked to QT prolongation.

The nature of data set [4]: Cytotoxicity assay, 6 days. The settings on record: human, CCRF-CEM cells. As to the method:
Cytotoxicity of the compounds was assessed by the following assay. CCRF-CEM cells in media (RPMI 1640, 15% FBS, Pen/Strep., 1% non-essential amino acids) are incubated with various concentrations of test compound for 6 days undisturbed. Cell number relative to no compound controls is determined using either Serotec's “Alamar blue” per manufacturers protocol or Promega's “Cell Titer 96 Aqueous One Solution Cell Proliferation Assay” kit per manufacturers protocol. The number cells not surviving after test compound administration is determined for each concentration tested and the EC50 (concentration of compound in which 50% of the cells survive) is determined

The test system of data set [5] is T-tropic HIV. As to the kind of experiment: Phenoscreen HIV entry inhibition assay. The conditions noted are these: Human immunodeficiency virus 1, read-out: IC50 for viral entry inhibition. As to the method: A selected set of compounds are tested for their ability to inhibit the cellular entry of T-tropic HIV. The assay for this inhibition is carried out on a contractual basis at Monogram Biosciences, Inc. using their well established Phenoscreen™ assay. Briefly, HIV strains of interest are tagged with a luciferase indicator gene to create an appropriate test vector. The test vector is amplified through transfection and the resulting virus is incubated in the presence of target host cells where intracellular […] activity then becomes a measure of infection. Amplified virus is exposed to target host cells in the presence of a range of test drug concentrations to determine IC50 measurements of entry inhibition. A modification of this test is further reapplied as a novel drug assay used in partnership with a number of pharmaceutical companies to test the effectiveness of novel entry inhibitors that target specific chemokines. It can used to detect activity against T-tropic, M-tropic, and dual-tropic viruses and Monogram Biosciences has a large bank of over 10,000 different virus strains to ultimately asses the range of applicability of our chemokine modulators. Certain compounds are tested to establish efficacy in a number of viral strains.

Where [6] appears, read: CEM cells, SDF-1α challenge at EC80-EC90.

Each structure is given as a SMILES string. Where a name gives a salt, the structure may show the parent alone. Where only a bound is given, the exact number is not on record here.

Sequence of hERG potassium channel (Q12809 whole entry): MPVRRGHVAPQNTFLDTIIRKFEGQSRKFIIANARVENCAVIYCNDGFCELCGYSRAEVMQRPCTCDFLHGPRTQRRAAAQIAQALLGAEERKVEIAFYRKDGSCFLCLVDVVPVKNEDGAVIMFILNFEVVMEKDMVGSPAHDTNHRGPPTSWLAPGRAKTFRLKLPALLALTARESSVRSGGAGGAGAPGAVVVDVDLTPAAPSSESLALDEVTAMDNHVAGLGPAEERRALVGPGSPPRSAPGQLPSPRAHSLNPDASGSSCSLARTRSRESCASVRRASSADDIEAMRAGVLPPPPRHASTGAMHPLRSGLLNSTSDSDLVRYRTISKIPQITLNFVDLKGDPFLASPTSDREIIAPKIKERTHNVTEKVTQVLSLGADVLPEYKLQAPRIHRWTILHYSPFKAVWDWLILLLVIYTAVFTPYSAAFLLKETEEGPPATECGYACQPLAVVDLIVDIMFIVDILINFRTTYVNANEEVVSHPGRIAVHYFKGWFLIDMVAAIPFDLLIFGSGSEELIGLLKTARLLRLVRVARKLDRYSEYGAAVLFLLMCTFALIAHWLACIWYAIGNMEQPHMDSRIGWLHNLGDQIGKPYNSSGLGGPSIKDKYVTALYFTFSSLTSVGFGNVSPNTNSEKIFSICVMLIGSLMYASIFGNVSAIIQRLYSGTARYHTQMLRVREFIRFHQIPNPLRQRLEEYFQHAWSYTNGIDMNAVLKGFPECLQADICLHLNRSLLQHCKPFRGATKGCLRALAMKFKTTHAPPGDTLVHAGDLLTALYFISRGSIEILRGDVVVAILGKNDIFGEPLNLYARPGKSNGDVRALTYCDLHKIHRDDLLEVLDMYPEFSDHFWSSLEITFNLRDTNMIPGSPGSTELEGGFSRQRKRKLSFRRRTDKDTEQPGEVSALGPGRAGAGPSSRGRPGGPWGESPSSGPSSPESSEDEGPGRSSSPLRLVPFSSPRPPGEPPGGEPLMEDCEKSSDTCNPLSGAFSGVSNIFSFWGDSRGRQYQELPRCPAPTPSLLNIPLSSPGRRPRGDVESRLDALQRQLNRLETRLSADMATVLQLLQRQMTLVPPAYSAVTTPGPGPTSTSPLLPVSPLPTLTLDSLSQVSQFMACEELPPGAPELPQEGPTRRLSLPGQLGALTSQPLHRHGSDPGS
T1 sequence (P61073 whole entry): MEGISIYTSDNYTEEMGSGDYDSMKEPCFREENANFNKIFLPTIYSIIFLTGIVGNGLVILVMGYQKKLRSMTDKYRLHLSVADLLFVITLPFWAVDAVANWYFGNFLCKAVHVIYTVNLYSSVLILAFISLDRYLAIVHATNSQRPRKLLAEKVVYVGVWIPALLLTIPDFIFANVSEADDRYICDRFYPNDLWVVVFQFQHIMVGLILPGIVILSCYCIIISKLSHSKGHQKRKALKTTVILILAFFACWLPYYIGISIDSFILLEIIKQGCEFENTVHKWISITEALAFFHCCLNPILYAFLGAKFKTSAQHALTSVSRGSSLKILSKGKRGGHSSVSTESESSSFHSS

Regarding `c1cnc2c(c1)CCCC2N(CCCCNC1=NCCN1)Cc1nccc2c1[nH]c1ccccc12` (stereo not shown), the IC50 in data set [1] (setting [6]) was 1.67 µM.
Take `NCCCCN(Cc1nccc2c1[nH]c1ccccc12)[C@H]1CCCc2cccnc21`: in data set [1] (setting [6]), the IC50 amounted to 0.03 µM.
Still for that read-out and setting: next, `NCCCCN(Cc1nccc2c1[nH]c1ccccc12)[C@@H]1CCCc2cccnc21`: 1.34 µM; `NCCCCN(Cc1cc2c(cn1)[nH]c1ccccc12)[C@@H]1CCCc2cccnc21`: 1.18 µM.
For `NCCCCN(Cc1cc2c(cn1)[nH]c1ccccc12)[C@H]1CCCc2cccnc21`, in data set [1] (setting [6]), the IC50 was determined as 0.1 µM.
As to `CC(C)(C)OC(=O)Cn1c2ccccc2c2ccnc(CN[C@H]3CCCc4cccnc43)c21`, the IC50 in data set [1] (setting [6]) is 2.81 µM.
On the same count and under the same terms, next, `CC(C)(C)OC(=O)Cn1c2ccccc2c2ccnc(CN(CCCCN)[C@H]3CCCc4cccnc43)c21`: 0.001 µM.
`NCCCCN(Cc1nccc2c3ccccc3n(CCN3CCNCC3)c12)C1CCCc2cccnc21` (stereo not shown): the IC50 in data set [2] was determined as 0.0057 µM.
`C#CCn1c2ccccc2c2ccnc(CN(CCCCN)C3CCCc4cccnc43)c21` (stereo not shown): the IC50 in data set [2] stood at 0.0055 µM.
For the compound `NCCCCN(Cc1nccc2c3ccccc3n(CC(=O)N3CCOCC3)c12)C1CCCc2cccnc21` (stereo not shown), the 50% inhibitory concentration (IC50) in data set [2] turned out to be 0.0056 µM.
Take `NCCCCN(Cc1nccc2c3ccccc3n(CC(N)=O)c12)C1CCCc2cccnc21` (stereo not shown): the IC50 in data set [2] came out at 0.0058 µM.
`NCCCCN(Cc1nccc2c3ccccc3n(CCCN)c12)C1CCCc2cccnc21` (stereo not shown): the IC50 in data set [2] was determined as 0.0073 µM.
`NCCCCN(Cc1nccc2c3ccccc3n(CCN3CCOCC3)c12)C1CCCc2cccnc21` (stereo not shown): the IC50 in data set [2] was 0.0077 µM.
Turning to `NCCCCN(Cc1nccc2c3ccccc3n(CCCN3CCNCC3)c12)C1CCCc2cccnc21` (stereo not shown), the IC50 in data set [2] amounted to 0.0083 µM.
On the same count and under the same terms, then `C[C@@H]1CN(C(=O)Cn2c3ccccc3c3ccnc(CN(CCCCN)C4CCCc5cccnc54)c32)C[C@H](C)O1` (stereo partly shown), with 0.0099 µM.
Same read-out and setting: next, `CN1CCN(C(=O)Cn2c3ccccc3c3ccnc(CN(CCCCN)C4CCCc5cccnc54)c32)CC1` (stereo not shown): 0.011 µM; `NCCCCN(Cc1nccc2c3ccccc3n(CC(=O)N3CCC(O)CC3)c12)C1CCCc2cccnc21` (stereo not shown): 0.012 µM; `O=C(Cn1c2ccccc2c2ccnc(CN(CCCN3CCNCC3)C3CCCc4cccnc43)c21)N1CCOCC1` (stereo not shown): 0.015 µM.
Turning to `O=C(O)Cn1c2ccccc2c2ccnc(CN(CCCN3CCNCC3)C3CCCc4cccnc43)c21` (stereo not shown), the IC50 in data set [2] was 0.026 µM.
`O=C(Cn1c2ccccc2c2ccnc(CN(CCCN3CCNCC3)[C@H]3CCCc4cccnc43)c21)C1CCOCC1`: in data set [1] (Table 9, selected compounds), the IC50 is 0.044 µM. The inhibition at 5 min, 10 µM in data set [3] was determined as 25%. Moreover, it took 30 µM to reach a half-maximal effect in data set [4] (EC50 at 6 days).
For the compound `NCCCCN(Cc1nccc2c1[nH]c1ccccc12)C1CCCc2cccnc21` (stereo not shown) [A, N-((9H-pyrido[3,4-b]indol-1-yl)methyl)-N-(4-aminobutyl)-5,6,7,8-tetrahydroquinolin-8-amine tetrahydrochloride], the IC50 in data set [5] is no more than 10 µM.
Same read-out and setting: then `c1ccc(-n2cc(CN(CCCCNCc3ccccn3)C3CCCc4cccnc43)nn2)cc1` (stereo not shown) [AB, N1-((1-phenyl-1H-1,2,3-triazol-4-yl)methyl)-N4-(pyridin-2-ylmethyl)-N1-(5,6,7,8-tetrahydroquinolin-8-yl)butane-1,4-diamine hydrochloride], with no more than 10 µM.
Take `NCCCCN(Cc1nccc2c1[nH]c1ccccc12)C1CCCc2cccnc21` (stereo not shown) [drawing 654]: in data set [1] (setting [6]), the IC50 was 0.142 µM.
On the same count and under the same terms, next, `NCCCCN(Cc1nccc2c3ccccc3n(CC(=O)N3CCOCC3)c12)[C@H]1CCCc2cccnc21` [drawing 701]: 0.079 µM.
Same read-out and setting: then `NCCCCN(Cc1nccc2c3ccccc3n(CC(=O)O)c12)[C@H]1CCCc2cccnc21` [drawing 709], with 0.022 µM; and `NCCCCN(Cc1nccc2c3ccccc3n(CCCN3CCNCC3)c12)[C@H]1CCCc2cccnc21` [drawing 723], with 0.015 µM; and `CN1CCN(C(=O)Cn2c3ccccc3c3ccnc(CN(CCCCN)[C@H]4CCCc5cccnc54)c32)CC1` [drawing 725], with 0.03 µM.
On the same count and under the same terms, next, `CC(C)(C)OC(=O)Cn1c2ccccc2c2ccnc(CN(CCCN3CCNCC3)[C@H]3CCCc4cccnc43)c21` [drawing 743]: 0.059 µM.
Take `C[C@@H]1CN(C(=O)Cn2c3ccccc3c3ccnc(CN(CCCCN)[C@H]4CCCc5cccnc54)c32)C[C@H](C)O1` [drawing 744]: the IC50 in data set [1] (setting [6]) amounted to 0.123 µM.
The same measure, in the same setting: then `NCCCCN(Cc1nccc2c3ccccc3n(CCCN)c12)[C@H]1CCCc2cccnc21` [drawing 748], with 0.021 µM; and `O=C(O)Cn1c2ccccc2c2ccnc(CN(CCCN3CCNCC3)[C@H]3CCCc4cccnc43)c21` [drawing 753], with 0.135 µM; and `NCCCCN(Cc1nccc2c3ccccc3n(CCN3CCNCC3)c12)[C@H]1CCCc2cccnc21` [drawing 754], with 0.063 µM.
Turning to `NCCCCN(Cc1nccc2c3ccccc3n(CC(N)=O)c12)[C@H]1CCCc2cccnc21` [drawing 765], in data set [1] (setting [6]), the half-inhibitory concentration (IC50) was determined as 0.017 µM.
For `c1cnc2c(c1)CCCC2N(CCCN1CCNCC1)Cc1nccc2c3ccccc3n(CCN3CCOCC3)c12` (stereo not shown) [drawing 811], in data set [2], the IC50 amounted to 0.0093 µM.
The same measure, in the same setting: next, `NCCCCN(Cc1nccc2c3ccccc3n(CC(=O)NC3CCNCC3)c12)C1CCCc2cccnc21` (stereo not shown) [drawing 814]: 0.012 µM.
Take `NCCCCN(Cc1nccc2c3ccccc3n(CC(=O)N3CCOCC3)c12)[C@H]1CCCc2cccnc21` [drawing 819]: the IC50 in data set [1] (Table 9, selected compounds) worked out at 0.012 µM. The inhibition at 5 min, 10 µM in data set [3] stood at 42%. In data set [4], the EC50 at 6 days came to 30 µM.
For `NCCCCN(Cc1nccc2c3ccccc3n(CC(=O)NC3CCNCC3)c12)C1CCCc2cccnc21` (stereo not shown) [drawing 821], in that order: 0.126 µM, 16% and 30 µM.
For `CN1CCN(C(=O)Cn2c3ccccc3c3ccnc(CN(CCCCN)[C@H]4CCCc5cccnc54)c32)CC1` [drawing 823], in that order: 0.03 µM, 39% and 50 µM.
Regarding `CC(C)(C)OC(=O)Cn1c2ccccc2c2ccnc(CN(CCCN3CCNCC3)[C@H]3CCCc4cccnc43)c21` [drawing 825], the IC50 in data set [1] (Table 9, selected compounds) turned out to be 0.037 µM. In data set [3], this compound yielded an inhibition at 5 min, 1 µM of 26%. The compound further gave an EC50 at 6 days in data set [4] of 0.6 µM.
Turning to `C[C@@H]1CN(C(=O)Cn2c3ccccc3c3ccnc(CN(CCCCN)[C@H]4CCCc5cccnc54)c32)C[C@H](C)O1` [drawing 826], in data set [1] (Table 9, selected compounds), the IC50 amounted to 0.123 µM. Besides, the inhibition at 5 min, 1 µM in data set [3] turned out to be 18%. The EC50 at 6 days in data set [4] came out at 5.3 µM.
For the compound `NCCCCN(Cc1nccc2c3ccccc3n(CCCN)c12)[C@H]1CCCc2cccnc21` [drawing 827], in data set [1] (Table 9, selected compounds), the IC50 came to 0.007 µM. Besides, the inhibition at 5 min, 10 µM in data set [3] was 46%. The EC50 at 6 days in data set [4] was determined as 6.4 µM.
As to `O=C(O)Cn1c2ccccc2c2ccnc(CN(CCCN3CCNCC3)[C@H]3CCCc4cccnc43)c21` [drawing 828], the IC50 in data set [1] (Table 9, selected compounds) was 0.113 µM. Besides, the inhibition at 5 min, 10 µM in data set [3] was determined as 20%. Moreover, the EC50 at 6 days in data set [4] was greater than 10 µM.
For the compound `NCCCCN(Cc1nccc2c3ccccc3n(CCN3CCNCC3)c12)[C@H]1CCCc2cccnc21` [drawing 829], the IC50 in data set [1] (Table 9, selected compounds) is 0.055 µM. The compound also gave an inhibition at 5 min, 10 µM in data set [3] of 45%. This compound had an EC50 at 6 days in data set [4] greater than 10 µM.

As a reminder, the IC50 is the midpoint of a concentration-inhibition curve. Usually inhibition stands for how much of the control response was suppressed. Lower therefore signals a response near the control. One may read the EC50 as the concentration that produces a half-maximal response. A lower EC50 goes with an effect from little substance.

(Values after US9314468B2, “Chemokine receptor modulators” (Altiris Therapeutics, Inc., priority 2008, dated 2016).)
